Reference: ChEMBL document CHEMBL1147579, “Design, synthesis and evaluation of novel 1,4-naphthoquinone derivatives as antifungal and anticancer agents” (2004)
Values after ≈ are worked out from the molar mass of the structure shown.

How the values were obtained:
Candida albicans = experiment: Antifungal activity against Candida albicans; assay type: functional
Cryptococcus neoformans [1] = experiment: Antifungal activity against Cryptococcus neoformans; assay type: functional
Tolypocladium inflatum = experiment: Antifungal activity against Sporotrichum schenckii; assay type: functional; conditions: sporotrichum scenckii
Sporothrix schenckii = experiment: Antifungal activity against Sporotrichum schenckii
[2] = Antifungal activity against Trichophyton mentagrophytes; assay type: functional, Trichophyton mentagraphytes; conditions: Trichophyton benhamiae
Microsporum canis = experiment: Antifungal activity against Microsporum canis; assay type: functional
Rattus norvegicus [3] = experiment: Anticancer activity against Walker 256 carcinoma in rat after administration of 10 mg/kg; Activity expressed as % T/C (Active); assay type: functional
Rattus norvegicus [4] = experiment: Anticancer activity against Walker 256 carcinoma cells in rat after administration of 10 mg/kg; Activity expressed as survivors out of 4 rats (Active); assay type: functional
Aspergillus fumigatus = experiment: Antifungal activity against Aspergillus fumigatus; assay type: functional
Cryptococcus neoformans [5] = experiment: Antifungal activity against C. neoformans; No activity; assay type: functional

Compound	MIC (Candida albicans) [mg/L]	MIC (Cryptococcus neoformans [1]) [mg/L]	MIC (Tolypocladium inflatum) [mg/L]	MIC (Sporothrix schenckii) [mg/L]	MIC [2] [mg/L]	MIC (Microsporum canis) [mg/L]	T/C (Rattus norvegicus [3]) [%]	Survivors (Rattus norvegicus [4])	MIC (Aspergillus fumigatus) [mg/L]	MIC (Cryptococcus neoformans [5]) [mg/L]
NYSTATIN	7.9	3.9	13.2							
O=C1c2sc3nccn3c2C(=O)c2c(O)ccc(O)c21	25 (≈ 87.3 µM)	< 12.5		< 12.5	25 (≈ 87.3 µM)	25 (≈ 87.3 µM)				
CC1=CC(=O)c2c(O)ccc(O)c2C1=O							23	4		
O=C1C=C(Sc2ccccc2)C(=O)c2ccccc21	12.5 (≈ 46.9 µM)	1.56 (≈ 5.86 µM)			< 0.78	< 0.98			25 (≈ 93.9 µM)	
O=C1C=CC(=O)c2c(O)ccc(O)c21 [NAPHTHAZALIN]							37	3 µg/mL		
Clc1ccc(COC(Cn2ccnc2)c2ccc(Cl)cc2Cl)c(Cl)c1 (stereo unspecified) [MICONAZOLE]	25 (≈ 60.1 µM)	12.5 (≈ 30 µM)			≤ 0.78	≤ 0.78			12.5 (≈ 30 µM)	
C[C@@H]1[C@H](O)[C@@H](C)/C=C/C=C/C=C/C=C/C=C/C=C/C=C/[C@H](O[C@@H]2O[C@H](C)[C@@H](O)[C@H](N)[C@@H]2O)C[C@@H]2O[C@](O)(C[C@@H](O)C[C@@H](O)[C@H](O)CC[C@@H](O)C[C@@H](O)CC(=O)O[C@H]1C)C[C@H](O)[C@H]2C(=O)O [AMPHOTERICIN B]	0.39 (≈ 0.422 µM)	0.78 (≈ 0.844 µM)			1.56 (≈ 1.69 µM)	1.56 (≈ 1.69 µM)				
O=C(O)CCSC1=CC(=O)c2c(O)ccc(O)c2C1=O	3.12 (≈ 10.6 µM)				3.12 (≈ 10.6 µM)	3.12 (≈ 10.6 µM)				1.56 (≈ 5.3 µM)
O=C1c2sc3nccn3c2C(=O)c2c(Cl)ccc(O)c21	25 (≈ 82 µM)	6.25 (≈ 20.5 µM)			6.25 (≈ 20.5 µM)	6.25 (≈ 20.5 µM)			3.1 (≈ 10.2 µM)	
O=C1C(CO)=C(Sc2ccccc2)C(=O)c2ccccc21	25 (≈ 84.4 µM)	1.56 (≈ 5.26 µM)			1.56 (≈ 5.26 µM)	1.56 (≈ 5.26 µM)			< 0.78	
O=C1c2ccccc2C(=O)c2c1sc1nccn21	50 (≈ 197 µM)	12.5 (≈ 49.2 µM)		25 (≈ 98.3 µM)	25 (≈ 98.3 µM)	25 (≈ 98.3 µM)			25 (≈ 98.3 µM)	
